The record followed here is US5476847A, “Derivatives of phosphinic acid useful as endothelin converting enzyme inhibitors” (priority 1994, dated 1995).

pIC50: −log10 of the molar value. Like-named read-outs stand apart in the source and are kept apart here.

This experiment concerns the target T1, ECE (Cavia porcellus, UniProt P97739).
T1 construct: tissue Keystone Biologicals, Cleveland, Ohio; host or cells: frozen guinea pig lungs; lubrol PX-treated lung membranes
T1 sequence (P97739 1-754): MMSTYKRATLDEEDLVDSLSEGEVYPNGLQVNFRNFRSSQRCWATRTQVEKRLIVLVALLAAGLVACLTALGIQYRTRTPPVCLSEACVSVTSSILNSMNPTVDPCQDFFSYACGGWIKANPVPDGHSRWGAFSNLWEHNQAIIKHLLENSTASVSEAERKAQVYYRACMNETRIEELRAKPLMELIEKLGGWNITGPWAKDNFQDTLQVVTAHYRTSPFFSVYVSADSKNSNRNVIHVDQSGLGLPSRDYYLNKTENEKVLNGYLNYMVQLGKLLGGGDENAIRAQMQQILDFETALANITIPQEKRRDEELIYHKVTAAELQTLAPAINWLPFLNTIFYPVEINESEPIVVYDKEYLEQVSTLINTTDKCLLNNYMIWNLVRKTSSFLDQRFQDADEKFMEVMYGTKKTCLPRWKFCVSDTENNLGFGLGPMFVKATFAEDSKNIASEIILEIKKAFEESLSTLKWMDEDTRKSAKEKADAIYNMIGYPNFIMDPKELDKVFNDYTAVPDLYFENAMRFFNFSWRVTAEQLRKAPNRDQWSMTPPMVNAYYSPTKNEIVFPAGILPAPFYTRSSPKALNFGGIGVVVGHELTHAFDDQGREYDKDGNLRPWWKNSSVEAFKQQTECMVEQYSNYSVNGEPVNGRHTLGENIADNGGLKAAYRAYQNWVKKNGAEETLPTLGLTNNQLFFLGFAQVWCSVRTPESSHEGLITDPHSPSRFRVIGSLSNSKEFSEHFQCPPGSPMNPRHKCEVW
Put plainly: In vitro ECE assay (inhibition of [125I]BET-1 to [125I]ET-1 conversion, lubrol-treated guinea pig lung membrane). Particulars: L-GPLGM. In kind it is biochemical. From the text: The ECE assay is based on the quantitative determination of [^125 l]ET-1 released from [^125 l]BET-1 labeled on Tyrosine-13 by binding to the membrane-bound ET receptor. […] GPLGM was also found to contain a high density of ET receptors. Thus, this preparation was utilized as a source of both ECE and a saturating concentration of ET receptors for the quantitative determination of [251l]ET-1 from the conversion of [125l ]BET-1. Under selected experimental conditions of the ECE assay, specific [125l]ET-1 bound was directly related to ECE activity. Assays were carried out in the presence of varying concentrations of test compounds to evaluate their efficacy in inhibiting ECE activity.
Frozen guinea pig lungs (Keystone Biologicals,Cleveland, Ohio) are weighed and homogenized in 10 times gram tissue weight of solution A (50 mM Tris-HCl, pH 7.4, 0.25M sucrose, and 2 mM EDTA) using a Polytron tissue homogenizer (probe PTA-20S). Homogenization is repeated four times at speed setting seven each for 10 s and with 5-8 min intervals on ice in between homogenization. Homogenates are spun for 30 min at 2000 g (4100 rpm in an SS34 rotor or 3800 rpm in an SA-600 rotor). Supernatants containing membranes are carefully decanted and saved. Pellets are rehomogenized in solution A as described, and homogenates are spun at 2000 g for 30 min. Supernatants are removed, mixed with the supernatants from the first spin, and spun at 37000 rpm in a 45 Ti rotor (107022 g) for 60 min. Pellets containing membranes are suspended in solution B (10 mM Tris-HCl, pH 7.4, and 0.125M sucrose) using a Dounce homogenizer. Samples are divided into 1 ml fractions, rapidly frozen in a dry ice methanol bath, and stored at -80° C. All steps are carried out at 4° C.
GPLGM fractions prepared as described above are thawed and resuspended at a concentration of 1 mg membrane protein/mL in a solution containing 0.06% lubrol PX, 50 mM Tris-HCl (pH 7.4), and 100 mM NaCl. Stir the mixture for 1 h and then spin for 1 h at 37000 rpm in a 45 Ti rotor (107022 g). Discard the supernatants and resuspend the pellets in a solution containing 50 mM Tris-HCl (pH 7.4), and 100 mM NaCl using a Dounce homogenizer, and adjust the final volume to half the original volume. Spin the homogenates for 1 h at 37000 rpm in a 45 Ti rotor (107022 g). Suspend the membrane pellets in solution B and treat as described above. All steps are performed at 4° C.
ECE Assay: Samples of L-GPLGM containing 20 μg protein are incubated in a solution containing 100 mM Tris-HCl (pH 7), 100 mM NaCl, and 5 mg/ml BSA (Fraction V, 98-99% albumin) (Sigma Chemical Co.) at a final reaction volume of 100 μL. The ECE assay is initiated by the addition of [^125 l]BET-1 to obtain a final concentration of 500 pM. Reactions are carried out for 30 min at 37° C. Reactions are terminated by addition of 4 mL of solution C (10 mM Tris-HCl, pH 7.4, and 150 mM NaCl) at 4° C. followed by rapid filtration on Whatman GF/B glass microfiber filters. Filters are presoaked for 1 h at 4° C. in a solution containing 50 mM Tris-HCl (pH 7.4), 10 mg/mL BSA, and 0.1% sodium azide. Wash test tubes and filters four times with 4 mL of solution C at 4° C., and count radioactivity retained on the filters in a γ counter. Non-specific binding is determined in the presence of 1 μM of unlabeled ET-1 (Peninsula Laboratories, Inc., Belmont, Calif.) in the reaction mixture. All reactions are performed in duplicate.
To test the effect of test compounds on ECE activity, ECE assays are carried out in the presence of varying concentrations of the compounds. Assays are initiated following a 2 h incubation of L-GPLGM with the compound at 4° C. ECE activity in the presence of compounds is expressed as a percentage of control ECE activity of the membrane preparation, which is determined simultaneously.

The mark [1] stands for this setting: table of additional compounds, read-out: IC50 (in vitro ECE inhibition activity).
Setting [2] is: 2 h preincubation at 4° C., 500 pM [125I]BET-1, table of examples, read-out: ECE IC50.

For the compound `CC(C)CC(CP(=O)(O)C(Cc1ccc2ccccc2c1)NC(=O)C(CCCCNC(=O)OCc1ccccc1)NC(=O)C(CC(C)C)NS(C)(=O)=O)C(=O)N[C@@H](Cc1c[nH]c2ccccc12)C(=O)O` (stereo partly shown), the pIC50 under setting [1] was 6.64.

On to `CCC(C)C(NC(=O)OCc1ccccc1)C(=O)NC(Cc1ccccc1)P(=O)(O)CC(C(=O)N[C@@H](Cc1c[nH]c2ccccc12)C(=O)O)C(C)C` (stereo partly shown), for which the pIC50 under setting [1] is 6.40.

As to `CC(C)C(CP(=O)(O)C(Cc1ccccc1)NC(=O)C(CCCCNC(=O)OCc1ccccc1)NC(=O)OCc1ccccc1)C(=O)N[C@@H](Cc1c[nH]c2ccccc12)C(=O)O` (stereo partly shown), the pIC50 under setting [1] was 5.96.

On to `CCC(C)C(N)C(=O)NC(Cc1ccccc1)P(=O)(O)CC(C(=O)N[C@@H](Cc1c[nH]c2ccccc12)C(=O)O)C(C)C` (stereo partly shown), for which, under setting [1], the pIC50 is 5.80.

Consider `CC(C)CC(CP(=O)(O)C(Cc1ccccc1)NC(=O)C(CC(C)C)NC(=O)OCc1ccccc1)C(=O)N[C@@H](Cc1c[nH]c2ccccc12)C(=O)O` (stereo partly shown), for which the pIC50 under setting [1] is 6.80.

On to `CC(C)C(CP(=O)(O)C(Cc1ccc2ccccc2c1)NC(=O)C(CCCCNC(=O)OCc1ccccc1)NS(C)(=O)=O)C(=O)N[C@@H](Cc1c[nH]c2ccccc12)C(=O)O` (stereo partly shown), for which, under setting [1], the pIC50 is 6.10.

`CC(C)CC(CP(=O)(O)C(Cc1ccccc1)NC(=O)C(CCCCNC(=O)OCc1ccccc1)NS(C)(=O)=O)C(=O)N[C@@H](Cc1c[nH]c2ccccc12)C(=O)O` (stereo partly shown): the pIC50 under setting [1] was 6.30.

Consider `CC(C)CC(CP(=O)(O)C(CC(C)C)NC(=O)C(CCCCNC(=O)OCc1ccccc1)NS(C)(=O)=O)C(=O)N[C@@H](Cc1c[nH]c2ccccc12)C(=O)O` (stereo partly shown), for which the negative-log IC50 (pIC50) under setting [1] was 5.85.

`CC(C)CC(NC(=O)C(CCCCNC(=O)OCc1ccccc1)NS(C)(=O)=O)P(=O)(O)CC1(C(=O)N[C@@H](Cc2c[nH]c3ccccc23)C(=O)O)CCCC1` (stereo partly shown): under setting [1], the pIC50 was 6.59.

In the case of `CC(C)C(CP(=O)(O)C(Cc1ccccc1)NC(=O)C(CCCN)NS(C)(=O)=O)C(=O)N[C@@H](Cc1c[nH]c2ccccc12)C(=O)O` (stereo partly shown), under setting [1], the pIC50 is 6.26.

Regarding `CC(C)C(CP(=O)(O)C(Cc1ccccc1)NC(=O)C(CCCCN)NS(C)(=O)=O)C(=O)N[C@@H](Cc1c[nH]c2ccccc12)C(=O)O` (stereo partly shown), the pIC50 under setting [1] is 6.30.

Turning to `CC(C)C(CP(=O)(O)C(Cc1ccccc1)NC(=O)C(CCCCNC(=O)OCc1ccccc1)NS(C)(=O)=O)C(=O)N[C@@H](Cc1c[nH]c2ccccc12)C(=O)O` (single isomer, unassigned) [listing 1 of 2 here], under setting [1], the pIC50 is 6.41.

On to `CC(C)CC(CP(=O)(O)C(Cc1ccc2ccccc2c1)NC(=O)C(CCCCN)NS(C)(=O)=O)C(=O)N[C@@H](Cc1c[nH]c2ccccc12)C(=O)O` (single isomer, unassigned) [listing 1 of 3 here], for which, under setting [1], the negative logarithm of the IC50 (pIC50) is 7.57.

`CC(C)C(CP(=O)(O)C(Cc1ccccc1)NC(=O)C(CCCCNC(=O)OCc1ccccc1)NS(C)(=O)=O)C(=O)N[C@@H](Cc1c[nH]c2ccccc12)C(=O)O` (single isomer, unassigned) [listing 2 of 2 here]: the pIC50 under setting [1] is 5.82.

Take `CC(C)CC(CP(=O)(O)C(Cc1ccc2ccccc2c1)NC(=O)C(CCCCN)NS(C)(=O)=O)C(=O)N[C@@H](Cc1c[nH]c2ccccc12)C(=O)O` (single isomer, unassigned) [listing 2 of 3 here]: under setting [1], the pIC50 was 7.22.

Take `CC(C)CC(CP(=O)(O)C(Cc1ccc2ccccc2c1)NC(=O)C(CCCCN)NS(C)(=O)=O)C(=O)N[C@@H](Cc1c[nH]c2ccccc12)C(=O)O` (single isomer, unassigned) [listing 3 of 3 here]: under setting [1], the pIC50 is 7.17.

As for `CC(C)CC(CP(=O)(O)C(Cc1ccc2ccccc2c1)NC(=O)[C@H](CCCCNC(=O)OCc1ccccc1)NS(C)(=O)=O)C(=O)N[C@@H](Cc1c[nH]c2ccccc12)C(=O)O` (single isomer, unassigned) [Example 9A], under setting [2], the pIC50 is 7.19.

`CC(C)CC(CP(=O)(O)C(Cc1ccc2ccccc2c1)NC(=O)[C@H](CCCCNC(=O)OCc1ccccc1)NS(C)(=O)=O)C(=O)N[C@@H](Cc1c[nH]c2ccccc12)C(=O)O` (single isomer, unassigned) [Example 9B]: the negative logarithm of the IC50 (pIC50) under setting [2] was 5.35.

Take `CC(C)CC(CP(=O)(O)C(Cc1ccc2ccccc2c1)NC(=O)[C@H](CCCCNC(=O)OCc1ccccc1)NS(C)(=O)=O)C(=O)N[C@@H](Cc1c[nH]c2ccccc12)C(=O)O` (single isomer, unassigned) [Example 9C]: the pIC50 under setting [2] was 5.35.

With `CC(C)CC(CP(=O)(O)C(CC(C)C)NC(=O)[C@H](CCCCNC(=O)OCc1ccccc1)NS(C)(=O)=O)C(=O)N[C@@H](Cc1c[nH]c2ccccc12)C(=O)O` (single isomer, unassigned) [Example 10A], the pIC50 under setting [2] was 7.40.

As for `CC(C)CC(CP(=O)(O)C(Cc1ccc2ccccc2c1)NC(=O)OCc1ccccc1)C(=O)N[C@@H](Cc1c[nH]c2ccccc12)C(=O)O` (stereo partly shown) [Cbz, 2-naphthylmethyl, H, iso-butyl], under setting [1], the pIC50 was 6.52.

For the compound `O=C(NC(Cc1ccc2ccccc2c1)P(=O)(O)CC1(C(=O)N[C@@H](Cc2c[nH]c3ccccc23)C(=O)O)CCCC1)OCc1ccccc1` (stereo partly shown) [Cbz, 2-naphthylmethyl, R3 + R4 = (CH2)4], the pIC50 under setting [1] was 6.30.

With `CC(C)C(CP(=O)(O)C(Cc1ccccc1)NC(=O)OCc1ccccc1)C(=O)N[C@@H](Cc1c[nH]c2ccccc12)C(=O)O` (stereo partly shown) [Cbz, C6 H5CH2, H, iso-propyl], under setting [1], the pIC50 was 5.89.

For the compound `O=C(NC(Cc1ccccc1)P(=O)(O)CC1(C(=O)N[C@@H](Cc2c[nH]c3ccccc23)C(=O)O)CCCC1)OCc1ccccc1` (stereo partly shown) [Cbz, C6 H5CH2, R3 + R4 = (CH2)4], under setting [1], the pIC50 was 6.72.

In the case of `CC(C)CC(CP(=O)(O)C(CCCCO)NC(=O)OCc1ccccc1)C(=O)N[C@@H](Cc1c[nH]c2ccccc12)C(=O)O` (stereo partly shown) [Cbz, HO(CH2)4, H, iso-butyl], under setting [1], the pIC50 is 6.70.

For the compound `CC(C)CC(CP(=O)(O)C(CCCCN)NC(=O)OCc1ccccc1)C(=O)N[C@@H](Cc1c[nH]c2ccccc12)C(=O)O` (stereo partly shown) [Cbz, NH 2(CH2)4, H, iso-butyl], the negative-log IC50 (pIC50) under setting [1] was 6.40.

As for `CC(C)CC(CP(=O)(O)C(CC1CCCC1)NC(=O)OCc1ccccc1)C(=O)N[C@@H](Cc1c[nH]c2ccccc12)C(=O)O` (stereo partly shown) [Cbz, cyclopentylmethyl, H, iso-butyl], under setting [1], the pIC50 was 6.00.

Turning to `COc1ccc(CC(NC(=O)OCc2ccccc2)P(=O)(O)CC2(C(=O)N[C@@H](Cc3c[nH]c4ccccc34)C(=O)O)CCCC2)cc1` (stereo partly shown) [Example 1A], the pIC50 under setting [2] was 6.94.

By pIC50 is commonly meant −log10 of the IC50, conventionally taken in molar units.
